The term logP denotes the decadic logarithm of the partition coefficient of the neutral form, usually between octanol and water. A word on the logD: it is the decadic logarithm of the distribution of all forms, ionised or not, between an organic phase and buffer at a given pH. A high value points to a more lipophilic compound.

Among the data in the SangsterLogP compilation are logP and logD values, retold here.

Structures are written as SMILES.

A short description of one data set: method code SF, from Recanatgini, M.; Leoni, A.; Baraldi, G. (1991). Partition coefficients of 3-methyl-4-nitropyrazole-5-carboxamides. 16, 127-130.
Details: not given
`Cc1ccc(NC(=O)c2[nH]nc(C)c2[N+](=O)[O-])cc1` had a log partition coefficient (logP) of 2.34.

Still in this data set, the particulars now being: pH 1.0.
`CNC(=O)c1n[nH]c(C)c1[N+](=O)[O-]` registered a pH-dependent lipophilicity (logD) of -0.23.
As to `Cc1n[nH]c(C(=O)N(C)C2CCCCC2)c1[N+](=O)[O-]`, the logD was determined as 1.68.
Regarding `CCCCCCCCCCNC(=O)c1[nH]nc(C)c1[N+](=O)[O-]`, the pH-dependent lipophilicity (logD) amounted to 4.48.
Take `CCCCCCCCNC(=O)c1[nH]nc(C)c1[N+](=O)[O-]`: the log distribution coefficient (logD) amounted to 3.48.
In turn, `Cc1n[nH]c(C(=O)N2CCCCCC2)c1[N+](=O)[O-]` came in with a logD of 1.15.
Regarding `Cc1n[nH]c(C(=O)NCc2ccccc2)c1[N+](=O)[O-]`, the pH-dependent lipophilicity (logD) was 1.49.
Compound `Cc1n[nH]c(C(N)=O)c1[N+](=O)[O-]` showed a logD of -0.38.
On to `Cc1n[nH]c(C(=O)NC23CC4CC(CC(C4)C2)C3)c1[N+](=O)[O-]`, for which the logD amounted to 2.83.
As for `CCCCNC(=O)c1[nH]nc(C)c1[N+](=O)[O-]`, the logD was 1.27.
Still for that read-out and setting: for `Cc1[nH]nc(C(=O)NC2CC2)c1[N+](=O)[O-]` the value was 0.25.
For the compound `Cc1n[nH]c(C(=O)NCCc2ccccc2)c1[N+](=O)[O-]`, the logD stood at 1.82.
As to `CCCCCCNC(=O)c1[nH]nc(C)c1[N+](=O)[O-]`, the logD was 2.46.
The same measure, in the same setting: for `Cc1[nH]nc(C(=O)N2CCCCC2)c1[N+](=O)[O-]` the value was 0.79; for `Cc1n[nH]c(C(=O)N2CCCC2)c1[N+](=O)[O-]`, 0.25.
As for `Cc1n[nH]c(C(=O)NC2CCCCC2)c1[N+](=O)[O-]`, the logD amounted to 1.71.
`CCNC(=O)c1n[nH]c(C)c1[N+](=O)[O-]`: the pH-dependent lipophilicity (logD) stood at 0.13.
Still for that read-out and setting: the figure for `Cc1n[nH]c(C(=O)Nc2ccccc2)c1[N+](=O)[O-]` is 1.81.
For `Cc1n[nH]c(C(=O)NC2CCCC2)c1[N+](=O)[O-]`, the logD was found to be 1.24.
For the compound `CCCNC(=O)c1[nH]nc(C)c1[N+](=O)[O-]`, the logD is 0.65.
On the same count and under the same terms, for `Cc1n[nH]c(C(=O)N(C)Cc2ccccc2)c1[N+](=O)[O-]` the value was 1.65.
